Assay results taken from PubChem BioAssay (NCI).
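Test compounds were applied to cells in 96-well plates for 48 hours at 5 doses. Here, GI50 denotes the concentration required for 50% inhibition of growth. At the TGI there is no net growth.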

Experiments:
Assay in all cases: growth of human tumour cells (NCI), 48 h
OVCAR-5 ovarian = system: OVCAR-5 ovarian
SR leukemia = system: SR leukemia
SF-295 CNS = system: SF-295 CNS
MDA-MB-435 = system: MDA-MB-435
KM12 colon = system: KM12 colon
IGROV1 ovarian = system: IGROV1 ovarian
SW-620 colon = system: SW-620 colon
SK-OV-3 ovarian = system: SK-OV-3 ovarian
HOP-92 NSCLC = system: HOP-92 NSCLC
CAKI-1 renal = system: CAKI-1 renal

| SMILES | TGI (OVCAR-5 ovarian) [µM] | TGI (SR leukemia) [µM] | TGI (SF-295 CNS) [µM] | TGI (MDA-MB-435) [µM] | TGI (KM12 colon) [µM] | TGI (IGROV1 ovarian) [µM] | TGI (SW-620 colon) [µM] | TGI (SK-OV-3 ovarian) [µM] | TGI (HOP-92 NSCLC) [µM] | TGI (CAKI-1 renal) [µM] | GI50 (OVCAR-5 ovarian) [nM] | GI50 (SF-295 CNS) [nM] | GI50 (MDA-MB-435) [nM] | GI50 (KM12 colon) [nM] | GI50 (SK-OV-3 ovarian) [µM] | GI50 (HOP-92 NSCLC) [nM] | GI50 (CAKI-1 renal) [nM] |
| --- | --- | --- | --- | --- | --- | --- | --- | --- | --- | --- | --- | --- | --- | --- | --- | --- | --- |
| O=C(O)C1CSC2(CCCN(Cc3ccccc3)C2)N1 (configuration not stated) | > 100 | 34.4 | > 100 | > 100 | > 100 | > 100 | > 100 | > 100 | > 100 | > 100 | – | – | – | – | – | – | – |
| O=[N+]([O-])c1ccc(Nc2cccc3c2[nH]c2c(-c4ccccc4)nccc23)c([N+](=O)[O-])c1 | > 100 | – | > 100 | – | > 100 | > 100 | > 100 | > 100 | > 100 | – | – | – | – | – | – | – | – |
| Cc1nccn1S(=O)(=O)c1ccc(Cl)cc1 | > 100 | > 100 | > 100 | 48.8 | > 100 | > 100 | > 100 | > 100 | 64.3 | > 100 | – | – | – | – | – | – | – |
| Cc1ccc(C(=O)N/N=C(\N=Nc2ccccc2C(=O)O)c2ccc(N(C)C)cc2)cc1 | > 100 | – | > 100 | > 100 | > 100 | > 100 | > 100 | – | > 100 | > 100 | – | – | – | – | – | – | – |
| CNC(=O)C1OC(n2cnc3c(NCc4cccc(I)c4)nc(Cl)nc32)C(O)C1O (configuration not stated) | 27 | 59.6 | 40.4 | 27 | 24.3 | 27.2 | 51.6 | 35 | – | 40.7 | – | – | – | – | – | – | – |
| O=C(Cn1c(=O)oc2ccc(C(=O)c3cccc(Cl)c3)cc21)c1ccccc1 | > 100 | > 100 | > 100 | > 100 | – | > 100 | > 100 | > 100 | > 100 | > 100 | – | – | – | – | – | – | – |
| O=C(O)c1cccc(S(=O)(=O)NN2C(=O)CSC2c2c(O)ccc3ccccc23)c1 (configuration not stated) | > 100 | 59.6 | 94.9 | > 100 | > 100 | 45.1 | 65.7 | > 100 | – | 68 | – | – | – | – | – | – | – |
| N=C(N)c1ccc(-c2ccc(-c3ccc(Cl)cc3Cl)s2)nc1 | 3.21 | – | 3.24 | 3.11 | 3.19 | – | – | 25.6 | 4 | 3.1 | 1710 | 1740 | 1730 | 1760 | 8 | 1760 | 1710 |
| COc1ccc(C2=NN(c3nsc4ccccc34)C(=O)CC2)cc1 | > 100 | > 100 | – | – | > 100 | > 100 | > 100 | – | > 100 | – | – | – | – | – | – | – | – |
| Cc1cc(S(=O)(=O)Nc2n[nH]c(Nc3ccccc3)n2)c(SSc2cc(Cl)c(C)cc2S(=O)(=O)Nc2n[nH]c(Nc3ccccc3)n2)cc1Cl | > 100 | > 100 | > 100 | > 100 | > 100 | > 100 | > 100 | > 100 | – | > 100 | – | – | – | – | – | – | – |
| Nc1c(C(=O)O)nnc2cc(Cl)ccc12 | > 100 | > 100 | > 100 | > 100 | > 100 | > 100 | > 100 | > 100 | – | > 100 | – | – | – | – | – | – | – |
| CCc1n[nH]c(=O)[nH]1 | > 100 | > 100 | > 100 | > 100 | > 100 | > 100 | – | > 100 | – | > 100 | – | – | – | – | – | – | – |
| CC1=NN(c2nc(N)nc(-c3cc4ccccc4oc3=N)n2)C(C)(C)C1 | 60.1 | 46.8 | 32.6 | 41.8 | 34.2 | 32.1 | – | 34.7 | 42.7 | 31.1 | – | – | – | – | – | – | – |
| CC1=C(C(=O)NCc2ccccc2)C(c2ccco2)C(C(=O)NCc2ccccc2)=C(C)N1 | > 100 | > 100 | > 100 | – | > 100 | > 100 | > 100 | > 100 | > 100 | > 100 | – | – | – | – | – | – | – |
| CCOC(=O)CN1C(=O)C(=O)N(c2ccc(OC)c3ccccc23)C1=O | > 100 | > 100 | > 100 | > 100 | > 100 | – | > 100 | > 100 | – | > 100 | – | – | – | – | – | – | – |
| COc1cc2nc(-c3cccs3)nc(N3C(c4cc(OC)c(OC)c(OC)c4)=NNC(=O)c4ccccc43)c2cc1OC | 54.5 | > 100 | 42.6 | 32.1 | > 100 | > 100 | – | > 100 | > 100 | > 100 | – | – | – | – | – | – | – |
| O=S(=O)(O)c1cc(N=[N+]([O-])c2ccc(N=Nc3ccccc3)cc2S(=O)(=O)O)ccc1/C=C/c1ccc(N=[N+]([O-])c2ccc(N=Nc3ccccc3)cc2S(=O)(=O)O)cc1S(=O)(=O)O | > 100 | – | > 100 | – | > 100 | > 100 | > 100 | > 100 | > 100 | – | – | – | – | – | – | – | – |
| Cc1cc(OCc2nnc3n2N=C(c2cc(F)c(Cl)cc2Cl)/C(=C/c2ccc(-c4ccc(Cl)cc4)o2)S3)ccc1Cl | > 50 | > 50 | > 50 | > 50 | > 50 | > 50 | > 50 | – | – | > 50 | – | – | – | – | – | – | – |
| CCOC(=O)C1CCCN1C(=O)c1ccccc1Cl (configuration not stated) | > 100 | > 100 | > 100 | > 100 | > 100 | > 100 | > 100 | – | > 100 | > 100 | – | – | – | – | – | – | – |
| N#Cc1c(N2CCCC2)nsc1Nc1ccccc1 | > 100 | > 100 | > 100 | – | > 100 | > 100 | > 100 | – | > 100 | – | – | – | – | – | – | – | – |
| CC(C)N1[C@@H]2CCCC[C@H]2N(C(C)C)[P+]1=O | > 100 | > 100 | > 100 | > 100 | > 100 | – | > 100 | > 100 | > 100 | > 100 | – | – | – | – | – | – | – |
| Cc1cc(O)c(C(C)C)cc1C(=S)Nc1ccc(Cl)cc1 | 28.3 | 20.4 | 28.3 | 23.1 | 23 | 15.9 | 33.9 | 36.4 | – | 27.9 | – | – | – | – | – | – | – |
| CC(C)(CO)CNc1cc(Cl)nc(N)n1 | > 100 | > 100 | > 100 | > 100 | > 100 | > 100 | > 100 | – | > 100 | > 100 | – | – | – | – | – | – | – |
| CSc1nc(-c2ccccc2)nc(=[N+]2CCOCC2)s1 | > 100 | 67.5 | – | – | > 100 | > 100 | > 100 | > 100 | – | – | – | – | – | – | – | – | – |
